Assay: xn = mol fraction of the nth substance listed

CCCCCCCCCCCCCC + COc1ccccc1
viscosity [mPa·s], 101 kPa
Settings | x1 = 0.1012 | x1 = 0.2027 | x1 = 0.3005 | x1 = 0.3936 | x1 = 0.4986 | x1 = 0.6001 | x1 = 0.6977 | x1 = 0.7959 | x1 = 0.8991
298.15 K | 0.996 | 1.035 | 1.105 | 1.241 | 1.311 | 1.38 | 1.45 | 1.521 | 1.697
303.15 K | 0.916 | 0.974 | 1.004 | 1.116 | 1.21 | 1.304 | 1.398 | 1.493 | 1.587
308.15 K | 0.855 | 0.907 | 0.932 | 1.028 | 1.089 | 1.149 | 1.209 | 1.27 | 1.331

CCCCCO + COC(=O)OC
101.3 kPa
Settings | viscosity [mPa·s]
293.15 K, x2 = 0.0482 | 3.367
293.15 K, x2 = 0.0991 | 2.836
293.15 K, x2 = 0.1941 | 2.11
293.15 K, x2 = 0.2974 | 1.605
293.15 K, x2 = 0.3939 | 1.304
293.15 K, x2 = 0.4993 | 1.092
293.15 K, x2 = 0.6 | 0.939
293.15 K, x2 = 0.7013 | 0.81
293.15 K, x2 = 0.8013 | 0.704
293.15 K, x2 = 0.8915 | 0.635
293.15 K, x2 = 0.9503 | 0.619
298.15 K, x2 = 0.0457 | 2.905
298.15 K, x2 = 0.1016 | 2.46
298.15 K, x2 = 0.1979 | 1.88
298.15 K, x2 = 0.3057 | 1.441
298.15 K, x2 = 0.4024 | 1.179
298.15 K, x2 = 0.503 | 0.988
298.15 K, x2 = 0.5793 | 0.878
298.15 K, x2 = 0.7034 | 0.739
298.15 K, x2 = 0.8003 | 0.655
298.15 K, x2 = 0.9018 | 0.597
298.15 K, x2 = 0.9494 | 0.586
303.15 K, x1 = 0.0192 | 0.542
303.15 K, x2 = 0.0539 | 2.488
303.15 K, x2 = 0.0906 | 2.228
303.15 K, x2 = 0.1979 | 1.66
303.15 K, x2 = 0.2613 | 1.416
303.15 K, x2 = 0.3902 | 1.066
303.15 K, x2 = 0.4928 | 0.89
303.15 K, x2 = 0.5918 | 0.759
303.15 K, x2 = 0.6923 | 0.661
303.15 K, x2 = 0.792 | 0.601
303.15 K, x2 = 0.8943 | 0.56
313.15 K, x2 = 0.0467 | 1.972
313.15 K, x2 = 0.1037 | 1.678
313.15 K, x2 = 0.2514 | 1.161
313.15 K, x2 = 0.3005 | 1.046
313.15 K, x2 = 0.3996 | 0.876
313.15 K, x2 = 0.5052 | 0.75
313.15 K, x2 = 0.6059 | 0.659
313.15 K, x2 = 0.7024 | 0.596
313.15 K, x2 = 0.8053 | 0.54
313.15 K, x2 = 0.9051 | 0.502
313.15 K, x2 = 0.9651 | 0.494

C=COCCCC + CCOC(=O)OCC
viscosity [mPa·s], 100 kPa
Settings | x2 = 0.1011 | x2 = 0.2003 | x2 = 0.2975 | x2 = 0.4029 | x2 = 0.4992 | x2 = 0.6014 | x2 = 0.6975 | x2 = 0.7978 | x2 = 0.9004
303.15 K | 0.406 | 0.429 | 0.452 | 0.48 | 0.509 | 0.542 | 0.575 | 0.614 | 0.656
308.15 K | 0.386 | 0.406 | 0.43 | 0.454 | 0.483 | 0.515 | 0.547 | 0.583 | 0.62
313.15 K | 0.365 | 0.383 | 0.403 | 0.426 | 0.451 | 0.481 | 0.511 | 0.545 | 0.582

CN(C)C=O + Cc1ccccc1
Settings | viscosity [mPa·s]
293.15 K, 101 kPa, x1 = 0.0501 | 0.592
293.15 K, 101 kPa, x1 = 0.1001 | 0.607
293.15 K, 101 kPa, x1 = 0.22 | 0.641
293.15 K, 101 kPa, x1 = 0.3122 | 0.668
293.15 K, 101 kPa, x1 = 0.4002 | 0.693
293.15 K, 101 kPa, x1 = 0.5002 | 0.721
293.15 K, 101 kPa, x1 = 0.6111 | 0.751
293.15 K, 101 kPa, x1 = 0.7003 | 0.775
293.15 K, 101 kPa, x1 = 0.8122 | 0.805
293.15 K, 101 kPa, x1 = 0.9002 | 0.828
298.15 K, 101.3 kPa, x1 = 0.1224 | 0.584
298.15 K, 101.3 kPa, x1 = 0.2414 | 0.612
298.15 K, 101.3 kPa, x1 = 0.3485 | 0.639
298.15 K, 101.3 kPa, x1 = 0.4031 | 0.654
298.15 K, 101.3 kPa, x1 = 0.5545 | 0.699
298.15 K, 101.3 kPa, x1 = 0.657 | 0.723
298.15 K, 101.3 kPa, x1 = 0.7413 | 0.742
298.15 K, 101.3 kPa, x1 = 0.8336 | 0.764
298.15 K, 101.3 kPa, x1 = 0.9129 | 0.781
303.15 K, 101.3 kPa, x1 = 0.1224 | 0.55
303.15 K, 101.3 kPa, x1 = 0.2414 | 0.576
303.15 K, 101.3 kPa, x1 = 0.3485 | 0.601
303.15 K, 101.3 kPa, x1 = 0.4031 | 0.615
303.15 K, 101.3 kPa, x1 = 0.5545 | 0.657
303.15 K, 101.3 kPa, x1 = 0.657 | 0.68
303.15 K, 101.3 kPa, x1 = 0.7413 | 0.698
303.15 K, 101.3 kPa, x1 = 0.8336 | 0.718
303.15 K, 101.3 kPa, x1 = 0.9129 | 0.735
303.15 K, 101.33 kPa, x1 = 0.1037 | 0.542
303.15 K, 101.33 kPa, x1 = 0.1731 | 0.556
303.15 K, 101.33 kPa, x1 = 0.2947 | 0.581
303.15 K, 101.33 kPa, x1 = 0.3985 | 0.602
303.15 K, 101.33 kPa, x1 = 0.4729 | 0.618
303.15 K, 101.33 kPa, x1 = 0.6004 | 0.645
303.15 K, 101.33 kPa, x1 = 0.7147 | 0.67
303.15 K, 101.33 kPa, x1 = 0.7974 | 0.688
303.15 K, 101.33 kPa, x1 = 0.8981 | 0.712
308.15 K, 101.3 kPa, x1 = 0.1224 | 0.518
308.15 K, 101.3 kPa, x1 = 0.2414 | 0.541
308.15 K, 101.3 kPa, x1 = 0.3485 | 0.565
308.15 K, 101.3 kPa, x1 = 0.4031 | 0.578
308.15 K, 101.3 kPa, x1 = 0.5545 | 0.617
308.15 K, 101.3 kPa, x1 = 0.657 | 0.638
308.15 K, 101.3 kPa, x1 = 0.7413 | 0.655
308.15 K, 101.3 kPa, x1 = 0.8336 | 0.674
308.15 K, 101.3 kPa, x1 = 0.9129 | 0.69
313.15 K, 101.3 kPa, x1 = 0.1224 | 0.49
313.15 K, 101.3 kPa, x1 = 0.2414 | 0.512
313.15 K, 101.3 kPa, x1 = 0.3485 | 0.534
313.15 K, 101.3 kPa, x1 = 0.4031 | 0.547
313.15 K, 101.3 kPa, x1 = 0.5545 | 0.584
313.15 K, 101.3 kPa, x1 = 0.657 | 0.604
313.15 K, 101.3 kPa, x1 = 0.7413 | 0.619
313.15 K, 101.3 kPa, x1 = 0.8336 | 0.638
313.15 K, 101.3 kPa, x1 = 0.9129 | 0.653
313.15 K, 101.33 kPa, x1 = 0.1037 | 0.491
313.15 K, 101.33 kPa, x1 = 0.1731 | 0.505
313.15 K, 101.33 kPa, x1 = 0.2947 | 0.522
313.15 K, 101.33 kPa, x1 = 0.3985 | 0.543
313.15 K, 101.33 kPa, x1 = 0.4729 | 0.56
313.15 K, 101.33 kPa, x1 = 0.6004 | 0.583
313.15 K, 101.33 kPa, x1 = 0.7147 | 0.604
313.15 K, 101.33 kPa, x1 = 0.7974 | 0.622
313.15 K, 101.33 kPa, x1 = 0.8981 | 0.643

ClC(Cl)=C(Cl)Cl + CC(=O)c1ccccc1
298.15 K, 101 kPa
Settings | viscosity [mPa·s]
x2 = 0.1255 | 0.893
x2 = 0.3215 | 1.023
x2 = 0.5397 | 1.198
x2 = 0.7329 | 1.382
x2 = 0.9142 | 1.555

CC(C)CCl + CC(C)(C)O
viscosity [mPa·s], 101.33 kPa
Settings | x1 = 0.0982 | x1 = 0.2011 | x1 = 0.3047 | x1 = 0.4029 | x1 = 0.5031 | x1 = 0.6023 | x1 = 0.6979 | x1 = 0.7997 | x1 = 0.8948
298.15 K | 2.345 | 1.477 | 1.065 | 0.8424 | 0.6988 | 0.604 | 0.5388 | 0.4863 | 0.3827
313.15 K | 1.359 | 0.9661 | 0.7571 | 0.6303 | 0.5423 | 0.481 | 0.437 | 0.4053 | 0.3751

Reference: the CheMixHub viscosity set
